Data on five compounds can be found in patent US20210348177A1, “GENERATION OF HERITABLY GENE-EDITED PLANTS WITHOUT TISSUE CULTURE” (priority 2018, published 2021).

“Also recorded” adds a separate entry of the source.

Data set [1] deals with Arabidopsis thaliana. The settings on record: no DAAO; cited from earlier work.
For data set [2], the system named is plants that express DAAO. The settings on record: at the level of 30 mM; cited from earlier work.
Data set [3] deals with HSVtk transgene. In words: CRISPR editing after agro-injection, decapitation and ganciclovir selection: HSVtk. The data set is classed as in vivo, tomato. The settings on record: ganciclovir counter-selection of HSVtk+Cas9 lines, regenerated shoots. The method, then:
In example two, we decapitated the seedlings at the first internode so that cells that were genome edited could form a callus, regenerate new meristems and stems. The Cas9 expressing mother plants were injected with the viral replicon vector and decapitated at the epicotyl a week later. The decapitation site was covered with parafilm and an aluminum foil cap for 4 weeks. Any axillary buds in the cotyledon node were removed. When a solid callus mass was visible (approx. four weeks after decapitation) at the wound site, the caps were removed and ganciclovir was applied (2 mM concentration of the compound in a carbomer gel). Every meristem that developed into a healthy shoot was detached and propagated to fruiting. Mutation level and type were analyzed by PCR and sequencing of amplicons flanking the target genomic sites. Regenerated stems were evaluated for mutation in the marker and POTATO LEAF (C) sequences and the expected change in leaf shape typical of a C knockout. We evaluated the correlation between the Cas9 modified HSVtk and C.
Agrobacterium glycerol stocks transformed with pTRV or pTAV vectors were streaked onto LB plates containing appropriate antibiotics based on plasmids and agro strains. […] After 24 hours, cultures were measured for OD600 using spectrophotometer. […] The next day, OD600 was measured for each culture. […]

In data set [4] the test system is transgenic Arabidopsis root explants / leaf explants. The settings on record: 0.1 mM GAN; cited from earlier work.
For data set [5], the system named is transgene-free plants. Put plainly: Toxicity of GAN: shoot regeneration of decapitated transgene-free (wildtype) plants. The conditions noted are these: for Regeneration of transgene-free plants (control): one month after decapitation. The data set is classed as in vivo, tomato. The method, then:
(§1) Roughly one week later, seedlings were decapitated at the injection site using a sharp razor blade. Immediately after decapitation, parafilm was stretched over the decapitation site, to prevent the stem from drying out, and aluminum foil was added to cover the parafilm, shading the cut site to promote callus formation. Plants were returned to growth chamber and monitored for axillary shoot formation and callus regeneration. New shoots forming from the cotyledon axillary buds were removed using forceps as soon as they were observed.
(§2) After 1-2 weeks, the cut site of the stem began forming a white callus, and selection gel was applied. Carbomer 940 powder was added to a water solution containing selection agents to make 0.5% w/v carbomer gel. The pH was adjusted with KOH to 7.5 to thicken the gel. The gel containing the selecting agents was added to the decapitated plants by putting a droplet of the gel to the wound site of the shoot using spatula, about 40-50 uL in volume. Parafilm and aluminum foil was placed back on the cut site, and plants were returned to growth chamber. […] Parafilm and foil were removed from decapitation sites, and shoots were allowed to grow.
(§3) Solutions of D-amino acids were made from D-valine powder (MP Biomedicals 0210322625) and D/L-isoleucine powder (MP Biomedicals 0210208225). Zirgan (ganciclovir ophthalmic gel) 0.15%, an antiviral eye gel was used in making GAN gel, as well as in direct application on decapitated plants.
(§4) HSVtk (no Cas9) plants were germinated and grown in soil. They were decapitated about three weeks after they were sown. The selecting agent, GAN (Ganciclovir), was applied to the decapitated plants after the decapitation. We made a series of GAN gels with different GAN concentrations: 0.1 mM, 1 mM, and 4.5 mM. The 0.1 mM and 1 mM GAN gel was made by diluting the Zirgan ganciclovir ophthalmic gel (4.5 mM GAN) into 0.2% carbomer gel. The two gels were mixed in a 4 mL plastic vial by shaking. Around […] GAN gel was applied to each plant each time, and the gel application was renewed every three to five days.
(§5) We tested whether the carbomer gel itself would have an influence on plant regeneration. We included a group of wildtype plants that received no treatment, and a group of wildtype plants that received carbomer gel containing no GAN. All plants in both groups, except one plant in the control set, regenerated new shoots. Therefore, we eliminated the possibility of regeneration interference from the gel.
(§6) One month after the decapitation and application of GAN selection, the regeneration of shoots was evaluated. In the control plants with 0 mM GAN treatment, including HSVtk and wildtype plants, almost all the plants regenerated new shoots. […] Thus, we concluded that GAN was toxic to both HSVtk plants and wildtype plants at a concentration higher than 0.1 mM. However, as the GAN concentration increased, HSVtk plants became more sensitive to it than wildtype plants. At a concentration of 4.5 mM, GAN could prevent regeneration of the HSVtk plants, while still allowing some wildtype plants to regenerate. Therefore we decided to use a 2 mM dose as the effective selecting agent in our future experiments.

Data set [6] relates to HSVtk plants. In words: Toxicity of GAN: shoot regeneration of decapitated HSVtk plants. Type of data set: in vivo, tomato. The conditions noted are these: for Regeneration of HSVtk plants: one month after decapitation. As to the method:
as §1, §2, §3, §4, §5, §6

For data set [7], the system named is transgene-free explants. The conditions noted are these: 0.1 mM GAN; cited from earlier work.

In the case of `C[C@@H](N)C(=O)O` [D-alanine], the “influence on plant growth” value in data set [1] is “inhibit plant growth even at a low concentration”.

With `CC[C@@H](C)[C@@H](N)C(=O)O` [D-isoleucine], in data set [2], the “effect on plants that express DAAO” value is given as “deleterious effects”. Further, in data set [1], the “influence on plant growth” value is “very little influence on plant growth”.

For the compound `N[C@H](CO)C(=O)O` [D-serine], in data set [1], the “influence on plant growth” value was “inhibit plant growth even at a low concentration”.

Take `CC(C)[C@@H](N)C(=O)O` [D-valine]: in data set [2], the “effect on plants that express DAAO” value is given as “deleterious effects”. For the same compound, the “influence on plant growth” value in data set [1] is “very little influence on plant growth”.

Consider `Nc1nc(O)c2ncn(COC(CO)CO)c2n1` [GAN, ganciclovir], for which, in data set [3], the “escapes at current ganciclovir concentrations” value is listed as ~60%. The “shoot regeneration on transgenic root explants or callus formation on leaf explants” value in data set [4] is “significantly reduce”. Further, the “Regeneration of transgene-free plants (plants regenerated out of treated)” value in data set [5] (0.1 mM GAN) is “(14 out of 15)”; in data set [5] (1 mM GAN), “(8 out of 15)”; in data set [5] (4.5 mM GAN), 6 out of 23 and (6 out of 23). In addition, the “Regeneration of transgene-free plants (control)” value in data set [5] (0.1 mM GAN gel) was 93%; in data set [5] (1 mM GAN gel), 53%; in data set [5] (4.5 mM GAN gel) it was 26%. In addition, the “Regeneration of HSVtk plants (plants regenerated out of treated)” value in data set [6] (0.1 mM GAN) is “(16 out of 18)”; in data set [6] (1 mM GAN), “(4 out of 16)”; in data set [6] (4.5 mM GAN) it was “none of the HSVtk plants regenerated; also recorded: (0 out of 10)”. The “Regeneration of HSVtk plants” value in data set [6] (0.1 mM GAN gel on decapitated plants) stood at 89%; in data set [6] (1 mM GAN gel on decapitated plants) it was 25%; in data set [6] (4.5 mM GAN gel on decapitated plants), 0%. Besides, the “Concentration at which GAN was toxic to both HSVtk plants and wildtype plants” value in data set [6] (decapitated plants, GAN gel, HSVtk and wildtype plants) was “higher than 0.1 mM”. In data set [7], the “regeneration of transgene-free explants” value is given as “does not affect”.
